Measured values taken from US7138361B2, “Herbicidal heterocycles” (E. I. du Pont de Nemours and Company, priority 2000, dated 2006).

Assays:
Format in all cases: in vivo
[1] = system: barnyardgrass (Echinochloa crus-galli); assay: Test C flooded paddy test; details: for Barnyardgrass plant response rating: Flooded Paddy, scale 0 to 100, 0 no effect, 100 complete control; for Plant response rating, Barnyardgrass: flooded paddy test, scale 0 to 100 (0 no effect, 100 complete control)
Procedure, shortened: (§1)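 Greenhouse-maintained for 12 to 14 days after treatment, the paddy plants (2-leaf stage at application) were scored visually against controls. A score of 0 denotes no effect and a score of 100 denotes complete control.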

[2] = system: smallflower flatsedge (Cyperus difformis); assay: Test C flooded paddy test; details: for Flatsedge plant response rating: Flooded Paddy, scale 0 to 100, 0 no effect, 100 complete control; for Plant response rating, Flatsedge: flooded paddy test, scale 0 to 100 (0 no effect, 100 complete control)
Procedure, shortened: as §1

rice (Oryza saliva) [3] = assay: Test C flooded paddy test; details: for Rice plant response rating: Flooded Paddy, scale 0 to 100, 0 no effect, 100 complete control; for Plant response rating, Rice: flooded paddy test, scale 0 to 100 (0 no effect, 100 complete control)
Procedure, shortened: as §1

[4] = system: duck salad (Heteranthera limosa); assay: Test C flooded paddy test; details: for Ducksalad plant response rating: Flooded Paddy, scale 0 to 100, 0 no effect, 100 complete control; for Plant response rating, Ducksalad: flooded paddy test, scale 0 to 100 (0 no effect, 100 complete control)
Procedure, shortened: as §1

[5] = system: barnyardgrass (Echinochloa crus-galli); assay: Test B flooded paddy test; details: Rate 1000 g/ha, scale of 0 to 100 where 0 is no effect and 100 is complete control, visually evaluated after 13 to 15 days
Procedure, shortened: (§2)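 Plants were grown to the 2-leaf stage in flooded paddy conditions before treatment with the formulated test chemicals. After 13 to 15 days in a greenhouse, each species was visually compared with untreated controls and rated from 0 (no effect) to 100 (complete control).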

[6] = system: smallflower flatsedge (Cyperus difformis); assay: Test B flooded paddy test; details: Rate 1000 g/ha, scale of 0 to 100 where 0 is no effect and 100 is complete control, visually evaluated after 13 to 15 days
Procedure, shortened: as §2

rice (Oryza saliva) [7] = assay: Test B flooded paddy test; details: Rate 1000 g/ha, scale of 0 to 100 where 0 is no effect and 100 is complete control, visually evaluated after 13 to 15 days
Procedure, shortened: as §2

[8] = system: duck salad (Heteranthera limosa); assay: Test B flooded paddy test; details: Rate 1000 g/ha, scale of 0 to 100 where 0 is no effect and 100 is complete control, visually evaluated after 13 to 15 days
Procedure, shortened: as §2

[9] = system: pigweed (Amaranthus retroflexus); assay: Test B postemergence; details: 13 to 15 days
Procedure, shortened: (§3)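 Visual injury scores, 0 = no effect to 100 = complete control, assigned against controls after 13 to 15 days in the greenhouse. Compounds formulated in non-phytotoxic solvent plus surfactant and applied to soil after planting (pre) or onto foliage of 1- to 4-leaf plants (post).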

[10] = system: Surinam grass (Brachiaria decumbens); assay: Test B postemergence; details: 13 to 15 days
Procedure, shortened: as §3

[11] = system: crabgrass (Digitaria sanguinalis); assay: Test B postemergence; details: 13 to 15 days
Procedure, shortened: as §3

[12] = system: barnyardgrass (Echinochloa crus-galli); assay: Test B postemergence; details: 13 to 15 days
Procedure, shortened: as §3

[13] = system: morning glory (Ipomoea hederacea); assay: Test B postemergence; details: 13 to 15 days
Procedure, shortened: as §3

wild oat (Avena fatua) = assay: Test B postemergence; details: 13 to 15 days
Procedure, shortened: as §3

[14] = system: giant foxtail (Setaria faberii); assay: Test B postemergence; details: 13 to 15 days
Procedure, shortened: as §3

[15] = system: cocklebur (Xanthium strumarium); assay: Test B postemergence; details: 13 to 15 days
Procedure, shortened: as §3

[16] = system: blackgrass (Alopecurus myosuroides); assay: Test B postemergence; details: 13 to 15 days
Procedure, shortened: as §3

corn (Zea mays) [17] = assay: Test B postemergence; details: 13 to 15 days
Procedure, shortened: as §3

[18] = system: velvetleaf (Abutilon theophrasti); assay: Test B postemergence; details: 13 to 15 days
Procedure, shortened: as §3

[19] = system: wheat (Triticum aestivum); assay: Test B postemergence; details: 13 to 15 days
Procedure, shortened: as §3

[20] = system: lambsquarters (Chenopodium album); assay: Test B postemergence; details: 13 to 15 days
Procedure, shortened: as §3

[21] = system: pigweed (Amaranthus retroflexus); assay: Test B preemergence
Procedure, shortened: as §3

[22] = system: Surinam grass (Brachiaria decumbens); assay: Test B preemergence
Procedure, shortened: as §3

[23] = system: crabgrass (Digitaria sanguinalis); assay: Test B preemergence
Procedure, shortened: as §3

[24] = system: barnyardgrass (Echinochloa crus-galli); assay: Test B preemergence
Procedure, shortened: as §3

[25] = system: morning glory (Ipomoea hederacea); assay: Test B preemergence
Procedure, shortened: as §3

[26] = system: giant foxtail (Setaria faberii); assay: Test B preemergence
Procedure, shortened: as §3

[27] = system: cocklebur (Xanthium strumarium); assay: Test B preemergence; details: Preemergence, Rate 500 g/ha; scale 0 to 100, 0 no effect, 100 complete control
Procedure, shortened: as §3

corn (Zea mays) [28] = assay: Test B preemergence
Procedure, shortened: as §3

rice (Oryza saliva) [29] = assay: Test B preemergence
Procedure, shortened: as §3

[30] = system: velvetleaf (Abutilon theophrasti); assay: Test B preemergence
Procedure, shortened: as §3

[31] = system: lambsquarters (Chenopodium album); assay: Test B preemergence
Procedure, shortened: as §3

[32] = Rate 125 g/ha, scale 0 (no effect) to 100 (complete control)
[33] = Rate 500 g/ha, scale 0 to 100, 0 is no effect, 100 is complete control
[34] = Preemergence, Rate 500 g/ha, scale 0 to 100, 0 no effect, 100 complete control
[35] = preemergence, Rate 125 g/ha, scale of 0 to 100 where 0 is no effect and 100 is complete control, 13 to 15 days

Compound: Cc1cc(N2CCC(n3ccc(C(C)(C)C)n3)C2=O)ccc1Cl (stereo not shown) [Compound 53]
- Barnyardgrass plant response rating ([1]; Rate 250 g/ha): 70
- Barnyardgrass plant response rating ([1]; Rate 500 g/ha): 100
- Plant response rating, Barnyardgrass ([1]; Rate 62 g/ha): 20
- Plant response rating, Barnyardgrass ([1]; Rate 125 g/ha): 30
- Flatsedge plant response rating ([2]; Rate 250 g/ha): 90
- Flatsedge plant response rating ([2]; Rate 500 g/ha): 100
- Plant response rating, Flatsedge ([2]; Rate 62 g/ha): 80
- Plant response rating, Flatsedge ([2]; Rate 125 g/ha): 90
- Rice plant response rating (rice (Oryza saliva) [3]; Rate 250 g/ha): 0
- Rice plant response rating (rice (Oryza saliva) [3]; Rate 500 g/ha): 0
- Plant response rating, Rice (rice (Oryza saliva) [3]; Rate 62 g/ha): 0
- Plant response rating, Rice (rice (Oryza saliva) [3]; Rate 125 g/ha): 0
- Ducksalad plant response rating ([4]; Rate 250 g/ha): 50
- Ducksalad plant response rating ([4]; Rate 500 g/ha): 60
- Plant response rating, Ducksalad ([4]; Rate 62 g/ha): 20
- Plant response rating, Ducksalad ([4]; Rate 125 g/ha): 40
- Plant response rating, Barnyardgrass [5]: 100
- Plant response rating, Flatsedge [6]: 90
- Plant response rating, Rice (rice (Oryza saliva) [7]): 20
- Plant response rating, Ducksalad [8]: 30
- Plant response rating, Pigweed [9, 32]: 80
- Plant response rating, Pigweed [9, 33]: 90
- Plant response rating, Surinam grass [10, 32]: 0
- Plant response rating, Surinam grass [10, 33]: 0
- Plant response rating, Crabgrass [11, 32]: 0
- Plant response rating, Crabgrass [11, 33]: 0
- Plant response rating, Barnyardgrass [12, 32]: 0
- Plant response rating, Barnyardgrass [12, 33]: 0
- Plant response rating, Morningglory [13, 32]: 0
- Plant response rating, Morningglory [13, 33]: 10
- Plant response rating, Wild Oat (wild oat (Avena fatua); [32]): 0
- Plant response rating, Wild Oat (wild oat (Avena fatua); [33]): 0
- Plant response rating, Foxtail, Giant [14, 32]: 0
- Plant response rating, Foxtail, Giant [14, 33]: 0
- Plant response rating, Cocklebur [15, 32]: 0
- Plant response rating, Cocklebur [15, 33]: 0
- Plant response rating, Blackgrass [16, 32]: 0
- Plant response rating, Blackgrass [16, 33]: 0
- Plant response rating, Corn (corn (Zea mays) [17]; [32]): 0
- Plant response rating, Corn (corn (Zea mays) [17]; [33]): 10
- Plant response rating, Velvetleaf [18, 32]: 0
- Plant response rating, Velvetleaf [18, 33]: 0
- Plant response rating, Wheat [19, 32]: 0
- Plant response rating, Wheat [19, 33]: 0
- Plant response rating, Lambsquarters [20, 32]: 40
- Plant response rating, Lambsquarters [20, 33]: 80
- Plant response rating, Pigweed [21, 34]: 100
- Plant response rating, Pigweed [21, 35]: 100
- Plant response rating, Surinam grass [22, 34]: 0
- Plant response rating, Surinam grass [22, 35]: 0
- Plant response rating, Crabgrass [23, 34]: 0
- Plant response rating, Crabgrass [23, 35]: 0
- Plant response rating, Barnyardgrass [24, 34]: 90
- Plant response rating, Barnyardgrass [24, 35]: 0
- Plant response rating, Morningglory [25, 34]: 0
- Plant response rating, Morningglory [25, 35]: 0
- Plant response rating, Foxtail, Giant [26, 34]: 0
- Plant response rating, Foxtail, Giant [26, 35]: 0
- Plant response rating, Cocklebur [27]: 0
- Plant response rating, Corn (corn (Zea mays) [28]; [34]): 0
- Plant response rating, Corn (corn (Zea mays) [28]; [35]): 0
- Plant response rating, Rice (rice (Oryza saliva) [29]; [34]): 0
- Plant response rating, Rice (rice (Oryza saliva) [29]; [35]): 0
- Plant response rating, Velvetleaf [30, 34]: 0
- Plant response rating, Velvetleaf [30, 35]: 0
- Plant response rating, Lambsquarters [31, 34]: 100
- Plant response rating, Lambsquarters [31, 35]: 100
